Reference: patent US8337835B2, “Use of an endogenous ligand for peroxisome proliferator activated receptor alpha to treat liver disorders” (priority 2009, dated 2012)

How the values were obtained:
[1] = system: PPARα target gene acyl CoA oxidase; test: Establishing conditions (dose, rate) for portal vein infusion; assay type: in vivo, mouse
Procedure: We therefore extrapolated the doses in mice taking into account the direct intraportal route, and tested doses ranging from 0.1 mg/day to 10 mg/day based on a 25 g mouse. […] Optimal dosing frequency was determined based on kinetic data obtained by injection of ^14C-labeled 16:0/18:1-GPC (American Radiochemicals, St. Louis) into the portal vein of […] mice as shown in FIG. 12. Following a single injection into the portal vein (1.9 μCi/mouse), total counts from both cytoplasmic and nuclear fractions were obtained (FIG. 12A). Using standard pharmacokinetic equations (Hardman et al., 2001), a dosing interval of 8.7 hours was calculated, indicating an optimal dosing frequency of three times a day.

[2] = biological target: T1, PPARδ LBD (Homo sapiens, UniProt Q03181); test: ALPHASCREEN binding assay, PPARδ ligand binding domain; details: 5 μM; compared with PPARδ activator GW0742
T1 construct: Identical experiments were performed using the PPARδ and PPARγ LBDs; 6xHis; made in house
T1 sequence (Q03181 211-439 limits assumed): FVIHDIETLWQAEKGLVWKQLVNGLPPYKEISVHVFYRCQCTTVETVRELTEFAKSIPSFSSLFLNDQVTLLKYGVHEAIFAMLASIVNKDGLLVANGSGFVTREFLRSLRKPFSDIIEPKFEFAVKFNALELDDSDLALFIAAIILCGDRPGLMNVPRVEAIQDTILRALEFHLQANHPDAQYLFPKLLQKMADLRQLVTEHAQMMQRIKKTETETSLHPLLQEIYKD
Procedure: Binding of 16:0/18:1-GPC and known agonists to the ligand binding domain (LBD) of PPARα in the presence of various peptide motifs was determined by ALPHASCREEN™ assay (Proc Natl Acad Sci USA 105, pp. 5034-5039, 2008). Experiments used 100 nM receptor LBD, purified as 6× His tag fusion proteins (Mol Cell 17, pp. 491-502, 2005), and 20 nM of N-terminal biotinylated CBP1 peptide or other coactivator peptides in the presence of 5 μg/ml donor and acceptor beads in 50 mM MOPS (pH 7.4), 100 mM NaCl, and 0.1 mg/ml BSA for 90 min at 25° C. Signals were generated in the absence or the presence of ligand. Identical experiments were performed using the PPARδ and PPARγ LBDs.
Stealth™ siRNA oligonucleotides were used to inhibit the gene expression of mouse ChPT1 ([…]) (SEQ ID NO: 1) and CEPT1 ([…]) (SEQ ID NO: 2) were from Invitrogen (Carlsbad, Calif.). […] Expression of ACO and CPT-1 was also assessed 24 h after addition of 50 μM 16:0/18:1-GPC in a subset of Hepa 1-6 cells previously treated with CEPT1 siRNA. mRNA levels are normalized to control L32 ribosomal mRNA. […] FIGS. 6F-H show the binding of various peptide motifs to the purified PPARα (FIG. 6F), PPARδ (FIG. 6G), and PPARγ (FIG. 6H) LBD in the presence of 5 μM of the corresponding PPAR agonist or 16:0/18:1-GPC as measured by AlphaScreen assays. […]

[3] = system: hepatic steatosis; test: Portal vein infusion, liver fat / triglyceride content in zero fat diet and fasting fatty liver model; assay type: in vivo, mouse

## CCCCCCCC/C=C\CCCCCCCC(=O)O[C@H](COC(=O)CCCCCCCCCCCCCCC)COP(=O)([O-])OCC[N+](C)(C)C [16:0/18:1-GPC, 1-palmitoyl-2-oleoyl-sn-glycerol-3-phosphocholine]
[1]; intraportal, rapid infusion (<1 min), mice
  lowest dose causing increased expression of the PPARα target gene acyl CoA oxidase: 10 mg/kg
[1]; larger doses and slower infusion rates
  solubility of infusate: poor solubility
[1]; larger doses and slower infusion rates, portal vein
  lethality: death due to portal vein thrombosis
[2]
  interaction with PPARδ: insubstantial
[3]; PPARα-deficient mice, 10 mg/kg intraportal three times a day, 5 days ZFD, 24 h fast
  liver lipid content: unaffected
[3]; control (C57/BL6) mice, 10 mg/kg intraportal three times a day, 5 days ZFD, 24 h fast, vs vehicle
  liver fat content: decreased
[3]; intraperitoneal route, preliminary results (data not shown)
  effect of intraperitoneal administration: no effect
